Test results: the supplement of paper PMC10307832

Assays:
Assay in all cases: relative viability (nuclei count vs DMSO), 5 days (fraction); higher = more cells survive
ABC-1 = tested on: ABC-1
How it was run: (§1)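 One day after seeding in 1536-well plates, lung cancer cell lines were dosed by pin tool. Dosing was either single-drug or a fixed anchor-drug dose plus five library-drug doses (not always all listed) in √10 steps. After 5 days, nuclei were stained in one fix-and-stain step and counted on 4× images, and relative viability is the nuclei count of treated wells over that of vehicle wells, given as the median of duplicate plates.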

BEN = tested on: BEN
How it was run: as §1

CAL-12T = tested on: CAL-12T
How it was run: as §1

EKVX = tested on: EKVX
How it was run: as §1

EMC-BAC-2 = tested on: EMC-BAC-2
How it was run: as §1

EPLC-272H = tested on: EPLC-272H
How it was run: as §1

HCC-78 = tested on: HCC-78
How it was run: as §1

HCC-827 = tested on: HCC-827
How it was run: as §1

LCLC-97TM1 = tested on: LCLC-97TM1
How it was run: as §1

LK-2 = tested on: LK-2
How it was run: as §1

LOU-NH91 = tested on: LOU-NH91
How it was run: as §1

NCI-H1395 = tested on: NCI-H1395
How it was run: as §1

NCI-H1437 = tested on: NCI-H1437
How it was run: as §1

NCI-H1650 = tested on: NCI-H1650
How it was run: as §1

NCI-H1755 = tested on: NCI-H1755
How it was run: as §1

NCI-H2009 = tested on: NCI-H2009
How it was run: as §1

NCI-H2023 = tested on: NCI-H2023
How it was run: as §1

NCI-H2170 = tested on: NCI-H2170
How it was run: as §1

NCI-H522 = tested on: NCI-H522
How it was run: as §1

NCI-H596 = tested on: NCI-H596
How it was run: as §1

NCI-H727 = tested on: NCI-H727
How it was run: as §1

PC-14 = tested on: PC-14
How it was run: as §1

SK-LU-1 = tested on: SK-LU-1
How it was run: as §1

SW 900 = tested on: SW 900
How it was run: as §1

UMC-11 = tested on: UMC-11
How it was run: as §1

Structure (SMILES): Nc1cccc2c1CN(C1CCC(=O)NC1=O)C2=O (stereo unspecified) [Lenalidomide] + COc1cccc2cc(-c3nc([C@H]4CC[C@H](C(=O)O)CC4)n4ncnc(N)c34)[nH]c12 [OSI-027] (partner 0.5 µM)
- relative viability (ABC-1; first compound 0.253 µM): 0.453
- relative viability (ABC-1; first compound 0.8 µM): 0.489
- relative viability (ABC-1; first compound 2.53 µM): 0.533
- relative viability (ABC-1; first compound 8 µM): 0.481
- relative viability (BEN; first compound 0.253 µM): 0.331
- relative viability (BEN; first compound 0.8 µM): 0.295
- relative viability (BEN; first compound 2.53 µM): 0.316
- relative viability (BEN; first compound 8 µM): 0.3
- relative viability (CAL-12T; first compound 0.253 µM): 0.599
- relative viability (CAL-12T; first compound 0.8 µM): 0.555
- relative viability (CAL-12T; first compound 2.53 µM): 1.01
- relative viability (CAL-12T; first compound 8 µM): 0.619
- relative viability (EKVX; first compound 0.253 µM): 0.724
- relative viability (EKVX; first compound 0.8 µM): 0.734
- relative viability (EKVX; first compound 2.53 µM): 0.696
- relative viability (EKVX; first compound 8 µM): 0.702
- relative viability (EMC-BAC-2; first compound 0.253 µM): 0.38
- relative viability (EMC-BAC-2; first compound 0.8 µM): 0.349
- relative viability (EMC-BAC-2; first compound 2.53 µM): 0.393
- relative viability (EMC-BAC-2; first compound 8 µM): 0.344
- relative viability (EPLC-272H; first compound 0.253 µM): 0.297
- relative viability (EPLC-272H; first compound 0.8 µM): 0.339
- relative viability (EPLC-272H; first compound 2.53 µM): 0.292
- relative viability (EPLC-272H; first compound 8 µM): 0.283
- relative viability (HCC-78; first compound 0.253 µM): 0.418
- relative viability (HCC-78; first compound 0.8 µM): 0.35
- relative viability (HCC-78; first compound 2.53 µM): 0.376
- relative viability (HCC-78; first compound 8 µM): 0.382
- relative viability (HCC-827; first compound 0.253 µM): 0.807
- relative viability (HCC-827; first compound 0.8 µM): 0.74
- relative viability (HCC-827; first compound 2.53 µM): 0.849
- relative viability (HCC-827; first compound 8 µM): 0.831
- relative viability (LCLC-97TM1; first compound 0.253 µM): 0.544
- relative viability (LCLC-97TM1; first compound 0.8 µM): 0.454
- relative viability (LCLC-97TM1; first compound 2.53 µM): 0.661
- relative viability (LCLC-97TM1; first compound 8 µM): 0.563
- relative viability (LK-2; first compound 0.253 µM): 0.215
- relative viability (LK-2; first compound 0.8 µM): 0.19
- relative viability (LK-2; first compound 2.53 µM): 0.191
- relative viability (LK-2; first compound 8 µM): 0.182
- relative viability (LOU-NH91; first compound 0.253 µM): 0.769
- relative viability (LOU-NH91; first compound 0.8 µM): 0.699
- relative viability (LOU-NH91; first compound 2.53 µM): 0.703
- relative viability (LOU-NH91; first compound 8 µM): 0.664
- relative viability (NCI-H1395; first compound 0.253 µM): 0.74
- relative viability (NCI-H1395; first compound 0.8 µM): 0.501
- relative viability (NCI-H1395; first compound 2.53 µM): 0.633
- relative viability (NCI-H1395; first compound 8 µM): 0.601
- relative viability (NCI-H1437; first compound 0.253 µM): 0.888
- relative viability (NCI-H1437; first compound 0.8 µM): 1.11
- relative viability (NCI-H1437; first compound 2.53 µM): 0.993
- relative viability (NCI-H1437; first compound 8 µM): 0.956
- relative viability (NCI-H1650; first compound 0.8 µM): 0.546
- relative viability (NCI-H1650; first compound 2.53 µM): 0.722
- relative viability (NCI-H1650; first compound 8 µM): 0.656
- relative viability (NCI-H1755; first compound 0.253 µM): 0.757
- relative viability (NCI-H1755; first compound 0.8 µM): 0.72
- relative viability (NCI-H1755; first compound 2.53 µM): 0.79
- relative viability (NCI-H1755; first compound 8 µM): 0.67
- relative viability (NCI-H2009; first compound 0.253 µM): 0.627
- relative viability (NCI-H2009; first compound 0.8 µM): 0.64
- relative viability (NCI-H2009; first compound 2.53 µM): 0.779
- relative viability (NCI-H2009; first compound 8 µM): 0.759
- relative viability (NCI-H2023; first compound 0.253 µM): 0.418
- relative viability (NCI-H2023; first compound 0.8 µM): 0.337
- relative viability (NCI-H2023; first compound 2.53 µM): 0.545
- relative viability (NCI-H2023; first compound 8 µM): 0.451
- relative viability (NCI-H2170; first compound 0.253 µM): 0.691
- relative viability (NCI-H2170; first compound 0.8 µM): 0.612
- relative viability (NCI-H2170; first compound 2.53 µM): 0.817
- relative viability (NCI-H2170; first compound 8 µM): 0.588
- relative viability (NCI-H522; first compound 0.253 µM): 0.754
- relative viability (NCI-H522; first compound 2.53 µM): 0.696
- relative viability (NCI-H522; first compound 8 µM): 0.596
- relative viability (NCI-H596; first compound 0.253 µM): 0.784
- relative viability (NCI-H596; first compound 2.53 µM): 0.764
- relative viability (NCI-H596; first compound 8 µM): 0.532
- relative viability (NCI-H727; first compound 0.253 µM): 0.523
- relative viability (NCI-H727; first compound 0.8 µM): 0.446
- relative viability (NCI-H727; first compound 2.53 µM): 0.609
- relative viability (NCI-H727; first compound 8 µM): 0.562
- relative viability (PC-14; first compound 0.253 µM): 0.791
- relative viability (PC-14; first compound 0.8 µM): 0.853
- relative viability (PC-14; first compound 2.53 µM): 1.2
- relative viability (PC-14; first compound 8 µM): 1.02
- relative viability (SK-LU-1; first compound 0.253 µM): 0.313
- relative viability (SK-LU-1; first compound 0.8 µM): 0.361
- relative viability (SK-LU-1; first compound 2.53 µM): 0.36
- relative viability (SK-LU-1; first compound 8 µM): 0.421
- relative viability (SW 900; first compound 0.253 µM): 0.559
- relative viability (SW 900; first compound 2.53 µM): 0.742
- relative viability (SW 900; first compound 8 µM): 0.532
- relative viability (UMC-11; first compound 0.253 µM): 0.456
- relative viability (UMC-11; first compound 0.8 µM): 0.576
- relative viability (UMC-11; first compound 2.53 µM): 0.53
- relative viability (UMC-11; first compound 8 µM): 0.464
